Assay results reported in patent US9072297B2, “Herbicidal composition” (ISHIHARA SANGYO KAISHA, LTD., priority 2010, dated 2015).

Key:
Format in all cases: in vivo
[1] = test system: crabgrass (Digitaria ciliaris (Retz.) Koel); test: Test Example 6: foliar application pot test, crabgrass 3.8 to 4.0 leaf stage; conditions: read-out: Growth inhibition rate (%) of crabgrass Measured value
Description: (§1) Growth inhibition rate (%)= • 0:equivalent to the non-treated area to 100:complete kill
(§2) Upland field soil was put into a 1/1,000,000 ha pot, and seeds of crabgrass (Digitaria ciliaris (Retz.) Koel) were sown. When crabgrass reached 3.8 to 4.0 leaf stage, a predetermined amount of each herbicidal composition was diluted with water (corresponding to 200 L/ha) containing 0.25 vol % of an agricultural adjuvant (tradename: Agral, manufactured by Syngenta) and applied by foliar application with a small sprayer.
(§3) On the 28th day after application, the state of growth of the plant was visually observed.

[2] = test system: surinam grass (Brachiaria decumbens Stapf.); test: Test Example 3: soil application pot test, surinam grass; conditions: Urochloa decumbens, read-out: Growth inhibition rate (%) of surinam grass Measured value
Description: as §1
(§4) Upland field soil was put into a 1/1,000,000 ha pot, and seeds of surinam grass (Brachiaria decumbens Stapf.) were sown. On the day after application, a predetermined amount of each herbicidal composition was diluted with water corresponding to 200 L/ha and applied by soil application with a small sprayer.
(§5) On the 42nd day after application, the state of growth of the plant was visually observed.

[3] = test system: guineagrass (Panicum maximum Jacq.); test: Test Example 1: foliar application pot test, guineagrass; conditions: Megathyrsus maximus, read-out: Growth inhibition rate (%) of guineagrass Measured value
Description: (§6) Upland field soil was put into a 1/1,000,000 ha pot, and seeds of various plants were sown. When the plants reached certain leaf stages (guineagrass (Panicum maximum Jacq.): 4.5 to 5.0 leaf stage, crabgrass (Digitaria ciliaris (Retz.) Koel): 3.0 to 4.2 leaf stage), a predetermined amount of each herbicidal composition was diluted with water (corresponding to 200 L/ha) containing 0.25 vol % of an agricultural adjuvant (tradename: Agral, manufactured by Syngenta) and applied by foliar application with a small sprayer.
(§7) On the 28th day after application, the state of growth of the plants were visually observed and evaluated in accordance with the following evaluation standard. The growth inhibition rate (%) (measured value) and the growth inhibition rate (%) (calculated value) calculated by the Colby's formula are shown in Tables 1 and 2.
as §1

[4] = test system: crabgrass (Digitaria ciliaris (Retz.) Koel); test: Test Example 1: foliar application pot test, crabgrass; conditions: read-out: Growth inhibition rate (%) of crabgrass Measured value
Description: as §6, §7, §1

[5] = test system: crabgrass (Digitaria ciliaris (Retz.) Koel); test: Test Example 7: foliar application pot test, crabgrass 4.5 leaf stage; conditions: read-out: Growth inhibition rate (%) of crabgrass Measured value; for inhibition at 300 g/ha: foliar
Description: as §1
as §2, with “4.5” for “3.8 to 4.0”
as §3

[6] = test system: surinam grass (Brachiaria decumbens Stapf.); test: Test Example 2: foliar application pot test, surinam grass; conditions: Urochloa decumbens, read-out: Growth inhibition rate (%) of surinam grass Measured value
Description: as §1
as §2, with “surinam grass (Brachiaria decumbens Stapf.)” for “crabgrass (Digitaria ciliaris (Retz.) Koel)”, “the surinam grass” for “crabgrass”, “2.8” for “3.8”, “3.2” for “4.0”
as §3

[7] = test system: field bindweed (Convolvulus arvensis L.); test: Test Example 4: soil application pot test, field bindweed; conditions: read-out: Growth inhibition rate (%) of field bindweed Measured value
Description: as §1
as §4, with “field bindweed (Convolvulus arvensis L.)” for “surinam grass (Brachiaria decumbens Stapf.)”
as §5

[8] = test system: crabgrass (Digitaria ciliaris (Retz.) Koel); test: Test Example 5: foliar application pot test, crabgrass (MonFast adjuvant); conditions: read-out: Growth inhibition rate (%) of crabgrass Measured value
Description: as §1
as §2, with “3.0” for “3.8”, “4.2” for “4.0”, “0.2” for “0.25”, “MonFast,” for “Agral,”, “Monsanto)” for “Syngenta)”
as §3

COc1cc(OC)nc(NC(=O)NS(=O)(=O)c2ncccc2C(F)(F)F)n1 [Flazasulfuron, 1-(4,6-dimethoxypyrimidin-2-yl)-3-(3-trifluoromethyl-2-pyridylsulfonyl)urea]
inhibition at 15 g/ha ([1]; dose 15 g/ha, foliar application, 3.8 to 4.0 leaf stage, Agral, 28th day after application): 40% | inhibition at 25 g/ha ([2]; dose 25 g/ha, soil application, 42nd day after application): 70% | inhibition at 20 g/ha ([3]; dose 20 g/ha, foliar application, 4.5 to 5.0 leaf stage, 28th day after application): 90% | inhibition at 37.5 g/ha ([3]; dose 37.5 g/ha, foliar application, 4.5 to 5.0 leaf stage, 28th day after application): 92% | inhibition at 25 g/ha ([4]; dose 25 g/ha, foliar application, 3.0 to 4.2 leaf stage, Agral, 28th day after application): 40% | inhibition at 100 g/ha ([5]; dose 100 g/ha, foliar application, 4.5 leaf stage, Agral, 28th day after application): 73% | inhibition at 37.5 g/ha ([6]; dose 37.5 g/ha, foliar application, 2.8 to 3.2 leaf stage, 28th day after application): 45% | inhibition at 37.5 g/ha ([7]; dose 37.5 g/ha, soil application, 42nd day after application): 25% | inhibition at 30 g/ha ([8]; dose 30 g/ha, foliar application, 3.0 to 4.2 leaf stage, MonFast, 28th day after application): 50% | inhibition at 40 g/ha ([8]; dose 40 g/ha, foliar application, 3.0 to 4.2 leaf stage, MonFast, 28th day after application): 58%

CN(C)C(=O)Nc1ccc(Cl)c(Cl)c1 [Diuron, 3-(3,4-dichlorophenyl)-1,1-dimethylurea]
inhibition at 3000 g/ha ([1]; foliar): 80% | inhibition at 1250 g/ha ([6]; foliar): 0% | inhibition at 1250 g/ha ([7]; soil): 0%

CON(C)C(=O)Nc1ccc(Br)cc1 [Metobromuron, 3-(4-bromophenyl)-1-methoxy-1-methylurea]
inhibition at 300 g/ha [5]: 5% | inhibition at 500 g/ha ([8]; foliar): 0% | inhibition at 1000 g/ha ([8]; foliar): 0%

CNC(=O)N(C)c1nnc(C(C)(C)C)s1 [Tebuthiuron, 1-(5-tertiarybutyl-1,3,4-thiadiazol-2-yl)-1,3-dimethylurea]
inhibition at 500 g/ha ([2]; soil): 28% | inhibition at 500 g/ha ([3]; foliar): 15% | inhibition at 500 g/ha ([4]; foliar): 0% | inhibition at 300 g/ha [5]: 17%
